# Reference: ChEMBL document CHEMBL3638918, “Pyrazole derivatives” (2015)
# Tests used:
# [1] = molecular target: Trace amine-associated receptor 1 (Mus musculus, UniProt Q923Y8); test: Radioligand Binding: The TAAR1 radioligand 3[H](S)-4-[(ethyl-phenyl-amino)-methyl]-4,5-dihydro-oxazol-2-ylamine (described in WO 2008/098857) was used at a concentration equal to the calculated Kd value, that was usually around 0.7 nM, resulting in the binding of approximately 0.5% of the radioligand and a specific binding representing approximately 70% of the total binding. Nonspecific binding was defined as the amount of 3[H](S)-4-[(ethyl-phenyl-amino)-methyl]-4,5-dihydro-oxazol-2-ylamine bound in the presence of 10 uM unlabeled ligand. All compounds were tested at a broad range of concentrations ([…]) in duplicates.
# [2] = molecular target: Trace amine-associated receptor 1 (Rattus norvegicus, UniProt Q923Y9); test: Nonspecific binding was defined as the amount of 3-[H]-(S)-4-[(ethyl-phenyl-amino)-methyl]-4,5-dihydro-oxazol-2-ylamine bound in the presence of 10 uM unlabeled ligand. All compounds were tested at a broad range of concentrations (10 pM to 10 uM) in duplicates. The test compounds (20 ul/well) were transferred into a 96 deep well plate (TreffLab), and 180 ul of HEPES-NaOH (20 mM, pH 7.4) containing MgCl2 (10 mM) and CaCl2 (2 mM) (binding buffer), 300 ul of the radioligand 3[H](S)-4-[(ethyl-phenyl-amino)-methyl]-4,5-dihydro-oxazol-2-ylamine at a concentration of 3.3Kd in nM.; format: cell membranes
# Chain of Trace amine-associated receptor 1 (Rattus norvegicus, UniProt Q923Y9) (Q923Y9 whole entry): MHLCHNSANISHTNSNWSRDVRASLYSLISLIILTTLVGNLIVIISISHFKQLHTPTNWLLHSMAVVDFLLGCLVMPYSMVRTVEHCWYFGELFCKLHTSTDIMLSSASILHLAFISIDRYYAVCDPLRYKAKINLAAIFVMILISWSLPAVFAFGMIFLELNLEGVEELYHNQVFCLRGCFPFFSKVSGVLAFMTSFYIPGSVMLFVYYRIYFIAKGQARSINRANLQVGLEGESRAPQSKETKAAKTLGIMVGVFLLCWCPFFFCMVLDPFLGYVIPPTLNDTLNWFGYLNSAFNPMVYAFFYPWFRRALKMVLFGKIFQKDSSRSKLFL
# Chain of Trace amine-associated receptor 1 (Mus musculus, UniProt Q923Y8) (Q923Y8 whole entry): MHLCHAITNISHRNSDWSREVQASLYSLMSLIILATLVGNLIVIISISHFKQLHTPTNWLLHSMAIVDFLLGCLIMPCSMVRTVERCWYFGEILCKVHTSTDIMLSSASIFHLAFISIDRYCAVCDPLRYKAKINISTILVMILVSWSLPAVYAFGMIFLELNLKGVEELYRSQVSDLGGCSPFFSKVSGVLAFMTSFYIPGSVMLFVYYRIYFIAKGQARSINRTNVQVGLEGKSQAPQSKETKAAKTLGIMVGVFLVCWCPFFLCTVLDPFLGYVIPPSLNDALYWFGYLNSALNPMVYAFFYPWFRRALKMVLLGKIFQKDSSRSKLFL
smiles,measurement,setting,value
COc1cccc(-c2cc(C(=O)Nc3ccc([C@H]4CNCCO4)cc3)n(C)n2)c1,Ki,[1],6.4 nM
same,Ki,[2],8.8 nM
